Laboratory results as given in patent US5912237A, “Method of synthesis of desulfated heparin and use thereof for inhibition of elastase and cathespin” (Carolinas HealthCare System, priority 1997, dated 1999).
Where “and” joins values, the source holds several entries; their conditions need not be identical. Identical values can stand only once. Entries after “also recorded” stand apart in the source; their conditions may differ.

Columns and labels:
factor Xa [1] = experiment: Anti-factor Xa activity, plasma treated with Russell viper venom; type: biochemical; settings: for Anti-factor Xa Activity (test time): control plasma 35 sec.
Description: The 2-O-desulfated heparin from Example III was also studied to determine whether plasma dilutions of 0.1 mg/ml heparin or heparin, desulfated according to Example III, inhibited factor Xa, prolonging test time in an assay for Xa activity utilizing plasma treated with Russell viper venom.

[2] = system: human leukocyte elastase (HLE)-mediated lung injury; experiment: HLE-mediated lung injury in hamsters, bronchoalveolar lavage; type: in vivo, golden Syrian hamsters; settings: hamster; for PMN in bronchoalveolar lavage fluid / Protein in bronchoalveolar lavage fluid / Total Hemoglobin in bronchoalveolar lavage fluid: intratracheal 500 μg followed by HLE 100 μg, 24 hours
Description: The ability of desulfated heparin to prevent human leukocyte elastase (HLE)-mediated lung injury was assessed in female golden Syrian hamsters (Harlan Industries, Indianapolis, Ind.) weighing 90 to 110 g. Phenobarbital-anesthetized hamsters were injected intratracheally with 0.25 ml sterile 0.9% saline (NS), 0.25 ml NS containing HLE (100 μg), or 0.25 ml NS containing 500 μg of heparin (Sigma) or 2-O-desulfated heparin according to Example III followed by 0.25 ml NS with HLE. Animals were killed by exsanguination 24 hours after treatment. The throat was opened and lungs dissected en bloc. The trachea was cannulated with polyethylene tubing and lavaged with five sequential aliquots of 3 ml NS. Lavage fluid was centrifuged at 200 Xg for 10 minutes. The resulting cell pellet was re-suspended in 1 ml Hank's balanced salt solution (HBSS) for performing cell count and differentials. The supernatant was assayed for protein and hemoglobin, as indices of acute injury.

cathepsin G = experiment: Inhibition of cathepsin G, substrate Suc-Ala-Ala-Pro-Phe-pNA; type: biochemical; settings: for Inhibition of cathepsin G, in words: I:E ratios of greater than 0.4
Description: (§1) The inhibition of HLE by 2-O-desulfated heparin of Example III was measured by incubating a constant amount of HLE (100 pmol) with increasing amounts of 2-O-desulfated heparin ([…]) for 30 minutes at 25° C. in 500 microliters of Hepes buffer (0.125 M, 0.125% Triton-X-100, pH 7.5) diluted to the final volume of 900 microliters. The remaining enzyme activity was measured by adding 100 microliters of 3 mM N-Suc-Ala-Ala-Val-NA (Sigma Chemicals, St. Louis, Mo., made in dimethylsulfoxide [DMSO]) and reading the absorbance of the proteolytically released chromogen 4-Nitroaniline at 405 nm. The percentage of inhibition was calculated based on enzyme activity without inhibitor.
The inhibition of cathepsin G by 2-O-desulfated heparin of Example III was measured as described above, except that the substrate was 3 mM Suc-Ala-Ala-Pro-Phe-pNA (Sigma Chemical, in DMSO).

human test serum = experiment: Activated partial thromboplastin time in vitro; type: biochemical; settings: for Time to Clot Formation: control 35-45
Description: The anti-coagulant potential of the desulfated heparin from Example III was studied by determining its effect on the activated partial thromboplastin time (APPT) in vitro. The test was performed in the usual fashion used to monitor the anti-coagulant effect of heparin clinically in patients. The test used 0.1 and 1.0 mg/ml heparin or heparin, 2-O-desulfated according to Example III, added to human test serum in vitro.

rats = settings: rat, in vivo, 10 mg/kg
blood coagulation [3] = settings: Rej et al. and Jaseja et al.; cited from earlier work
[4] = system: human leukocyte elastase (HLE); experiment: Inhibition of HLE, chromogenic substrate N-Suc-Ala-Ala-Val-NA; type: biochemical; settings: for Percent inhibition of HLE: substrate N-Suc-Ala-Ala-Val-NA
Description: The inhibition of HLE by partially N-desulfated heparin of Example I was measured by incubating a constant amount of HLE (100 pmol) with increasing amounts of partially N-desulfated heparin (10-50 pmol, I:E ratio 0.1-0.5) for 30 minutes at 25° C. in 500 microliters of Hepes buffer (0.125 M, 0.125% Triton-X-100, pH 7.5) diluted to the final volume of 900 microliters. The remaining enzyme activity was measured by adding 100 microliters of 3 mM N-Suc-Ala-Ala-Val-NA (Sigma Chemicals, St. Louis, Mo., made in dimethylsulfoxide [DMSO]) and reading the absorbance of the proteolytically released chromogen 4-Nitroaniline at 405 nm. The percentage of inhibition was calculated based on enzyme activity without inhibitor.
as §1

[5] = system: human leukocyte elastase (HLE); experiment: HLE degradation of 3H-elastin; type: biochemical; settings: substrate 3H-Elastin
Description: Also, bovine ligament elastin was prepared according to B. C. Starcher, Anal. Biochem. (1976) 74:441-447. The elastin was assessed for purity by amino acid analysis. Its degradation was assayed using elastin radiolabeled with ^3 H-NaBH4, following the methods described in P. J. Stone, et al., Methods Enzymol. (1982) 82:588-605. The tritiated powdered elastin was homogenized and washed in phosphate buffered saline (PBS), pH 7.4 just before use to remove unincorporated radioactivity. A constant amount of human leukocyte elastase (HLE) (67 pmol) was pre-incubated with increasing amounts of 2-O-desulfated heparin (6.7-134 pmol) at 37° C. for 30 minutes in a final volume of 1.0 ml Hepes buffer (0.125 M, 0.125% Triton-X-100, pH 7.5). An aliquot of 900 microliters of each reaction mixture was incubated with 5 mg ^3 H-elastin and 100 microliters of 0.9% saline at 37° C. Solubilized peptides were separated from the elastin suspension by filtration through medium-porosity filter paper. The rate of degradation was determined by quantifying the solubilized ^3 H peptides.

[6] = system: human polymorphonuclear leucocyte elastase (HLE); settings: cited from earlier work
blood coagulation [7] = experiment: USP anticoagulant activity
Excerpt: (§2) Heparin modifications HM0500393 through HM0505293 were made from the same lot of porcine intestinal mucosal sodium heparin having 173.0 units/mg USP anticoagulant activity (USP method) and approximately 150 units/mg anti-Xa activity (by amidolytic assay using commercially available chromogenic peptide substrate). Preparation of modifications began with dissolution of 50 to 100 gm heparin to 5-10% concentration in deionized water, followed by addition of sodium borohydride.

factor Xa [8] = experiment: Anti-Xa activity, amidolytic assay with chromogenic peptide substrate; type: biochemical
Excerpt: as §2

[9] = plasma dilution 1:2 of 0.1 mg/ml
[10] = plasma dilution 1:10 of 0.1 mg/ml
[11] = plasma dilution 1:100 of 0.1 mg/ml
[12] = plasma dilution 1:1000 of 0.1 mg/ml
[13] = Conc. 0.1 mg/ml in human test serum
[14] = Conc. 1.0 mg/ml in human test serum

Substance | Anti-factor Xa Activity (test time) (factor Xa [1]; [9]) | Anti-factor Xa Activity (test time) (factor Xa [1]; [10]) | Anti-factor Xa Activity (test time) (factor Xa [1]; [11]) | Anti-factor Xa Activity (test time) (factor Xa [1]; [12]) | Inhibition of elastase induced injury in vivo, in words [2] | PMN in bronchoalveolar lavage fluid [2] | Protein in bronchoalveolar lavage fluid [2] | Total Hemoglobin in bronchoalveolar lavage fluid [2] | Percent inhibition of Cathepsin G (cathepsin G; I:E ratio 0.1:1) | Percent inhibition of Cathepsin G (cathepsin G; I:E ratio 0.2:1) | Percent inhibition of Cathepsin G (cathepsin G; I:E ratio 0.4:1) | Percent inhibition of Cathepsin G (cathepsin G; I:E ratio 0.8:1) | Percent inhibition of Cathepsin G (cathepsin G; I:E ratio 1.0:1) | Percent inhibition of Cathepsin G (cathepsin G; I:E ratio 2.0:1) | Inhibition of cathepsin G, in words (cathepsin G) | Time to Clot Formation (human test serum; [13]) | Time to Clot Formation (human test serum; [14]) | HLE inhibitory activity, in words [4] | Percent inhibition of HLE ([4]; I:E ratio 0.2:1) | Percent inhibition of HLE ([4]; I:E ratio 0.3:1) | also measured
2-O-desulfated heparin [ODH] | 42 s | 33 s | 32 s | 32 s | potent inhibitors of elastase induced injury in vivo | 9.83 ×10^6 Cells | 65.80 mg/mL | 1.5 mg | 14% | 54% | 56% | 69% | 69% | 67% | significant inhibition of cathepsin G | 38 s | 42 s | significant inhibition of human leukocyte elastase | 74% | 84% | Antifactor Xa activity, in words (factor Xa [1]): little antifactor XA activity; Ability to prolong the APTT, in words (human test serum): little ability to prolong the APTT; Alveolar hemorrhage (rats): produced no alveolar hemorrhage; Anticoagulant activity, in words (blood coagulation [3]): minimal anticoagulant activity; Percent inhibition of HLE ([4]; I:E ratio 0.1:1): 20%; Percent inhibition of HLE ([4]; I:E ratio 0.4:1): 85%; Percent inhibition of HLE ([4]; I:E ratio 0.5:1): 84%; Percent inhibition of HLE ([4]; I:E ratio 0.6:1): 100%; Percent inhibition of HLE ([5]; I:E ratio 0.1:1): 73%; Percent inhibition of HLE ([5]; I:E ratio 0.2:1): 77%; Percent inhibition of HLE ([5]; I:E ratio 0.4:1): 72%; Percent inhibition of HLE ([5]; I:E ratio 0.5:1): 85%; Percent inhibition of HLE ([5]; I:E ratio 1.0:1): 85%; Percent inhibition of HLE ([5]; I:E ratio 2.0:1): 84%
dextran [non-sulfated dextran] | – | – | – | – | – | – | – | – | – | – | – | – | – | – | – | – | – | – | – | – | Inhibition of elastase, in words [6]: is not
dextran sulfate | – | – | – | – | – | – | – | – | – | – | – | – | – | – | – | – | – | – | – | – | Inhibition of elastase, in words [6]: potent inhibitor of elastase
heparin | > 480 s | > 420 s | 42 s | 32 s | potent inhibitors of elastase induced injury in vivo | 10.83 ×10^6 Cells | 41.06 mg/mL | 0.867 mg | 31% | 49% | 67% | 78% | 76% | 76% | significant inhibition of cathepsin G | 80 s | > 150 s | significant inhibition of human leukocyte elastase; also recorded: significantly inhibited human leukocyte elastase (HLE) at I:E ratios of greater than 0.2 | 72% and 51.000% | 83% and 91.000% | USP Activity (anti-coagulant activity) (blood coagulation [7]; Table VII): 173.0 u/mg; USP anticoagulant activity (blood coagulation [7]; listed as porcine intestinal mucosal sodium heparin): 173.0 units/mg; USP anticoagulant activity (blood coagulation [7]; listed as starting heparin): 170 units/mg; Percent inhibition of HLE ([4]; I:E ratio 0.2:1, listed as H): 81% and 79%; Percent inhibition of HLE ([4]; I:E ratio 0.3:1, listed as H): 88%; Percent inhibition of HLE ([4]; I:E ratio 0.4:1): 88%; Percent inhibition of HLE ([4]; I:E ratio 0.4:1, listed as H): 87% and 90%; Percent inhibition of HLE ([4]; I:E ratio 0.5:1): 93% and 97.000%; Percent inhibition of HLE ([4]; I:E ratio 0.5:1, listed as H): 87% and 91%; Percent inhibition of HLE ([4]; I:E ratio 0.6:1): 99%; Percent inhibition of HLE ([4]; I:E ratio 1:1): 98%; Percent inhibition of HLE ([4]; I:E ratio 1.5:1): 98%; Percent inhibition of HLE ([4]; I:E ratio 2:1): 98% and 99.000%; anti-Xa activity (factor Xa [8]): approximately 150 units/mg; Percent inhibition of HLE ([5]; I:E ratio 0.1:1): 72%; Percent inhibition of HLE ([5]; I:E ratio 0.2:1): 95%; Percent inhibition of HLE ([5]; I:E ratio 0.4:1): 92%; Percent inhibition of HLE ([5]; I:E ratio 0.5:1): 94%; Percent inhibition of HLE ([5]; I:E ratio 1.0:1): 97%; Percent inhibition of HLE ([5]; I:E ratio 2.0:1): 97%
